Here are results for 17 compounds from patent publication US7863449B2, “Modulators of muscarinic receptors” (Vertex Pharmaceuticals Incorporated, priority 2004, dated 2011).

Molecules are shown by their SMILES.

The term Emax denotes the greatest response seen or fitted, relative to the assay's reference.

One test has as its target T1, M4 muscarinic receptor (Homo sapiens, UniProt P08173).
T1 construct: expressed in transfected cells; host or cells: CHO (M4-CHO)
T1 sequence (P08173 1-479): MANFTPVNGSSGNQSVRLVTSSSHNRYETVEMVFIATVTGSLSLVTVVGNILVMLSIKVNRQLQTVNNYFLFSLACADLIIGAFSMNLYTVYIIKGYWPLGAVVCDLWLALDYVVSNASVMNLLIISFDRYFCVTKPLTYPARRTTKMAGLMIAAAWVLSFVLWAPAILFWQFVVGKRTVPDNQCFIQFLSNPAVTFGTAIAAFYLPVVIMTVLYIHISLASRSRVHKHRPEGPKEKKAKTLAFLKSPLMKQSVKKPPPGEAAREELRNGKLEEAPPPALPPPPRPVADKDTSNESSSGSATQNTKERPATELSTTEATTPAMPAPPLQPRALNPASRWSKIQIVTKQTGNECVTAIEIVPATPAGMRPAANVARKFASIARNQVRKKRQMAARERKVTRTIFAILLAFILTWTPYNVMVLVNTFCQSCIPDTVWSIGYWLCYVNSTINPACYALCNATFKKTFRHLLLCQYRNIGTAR
Put plainly: Functional mobilization of intracellular calcium (FLIPR), M4-CHO cells. To be noted: for Emax: 100% efficacy is the maximum response obtained using Carbachol as a control; for M4 Activity: M4-CHO cells, FLIPR calcium mobilization. In kind it is cell-based. The method, then: (§1) Functional Mobilization of Intracellular Calcium to Determine Muscarinic Receptor Activity:
(§2) CHO cells expressing muscarinic receptors (M1 to M5) are grown as monolayers in tissue culture flasks at 37° C. in a humidified atmosphere containing 5% CO2 and passaged every 3-5 days. The growth media is Dulbecco's modified eagles medium (DMEM, Gibco Cat# 12430-054), containing 25 mM Hepes and supplemented with Fetal Bovine Serum (Hyclone, cat# SH30071.03), 0.1 mM of MEM non-essential amino acids (GIBCO, Cat# 11140-050), 1 mM MEM Sodium Pyruvate (GIBCO Cat# 11360-070) and 100 units/ml of Penicillin G and 100 μg/ml of Streptomycin (GIBCO Cat# 15140-122). The recombinant muscarinic receptor cell lines are grown under antibiotic pressure with media containing 25 μg/ml zeocin and 500 μg/ml G418 (M1-CHO), 4 μg/ml puromycin, 50 μg/ml zeocin and 2.5 μg/ml blasticidin (M2 and M4-CHO) or 50 μg/ml zeocin and 4 μg/ml puromycin (M3 and M5-CHO).
(§3) Cells are harvested at 80-90% confluence using Versene (GIBCO Cat# 15040-066), collected by centrifugation and seeded 18-24 hrs prior to running the calcium assay at a density of 5,000-10,000 cells/well in […], clear-bottomed 384-well plates (BD Biocoat, poly-D-lysine, Cat#356663). The day of the experiment, the cells are washed with a plate washer (Bioteck Instruments, ELX 405) using bath1 buffer (140-mM NaCl, 4.5-mM KCl, 2-mM CaCl2, 1-mM MgCl2, 10-mM Hepes-Na, 10-mM Glucose, pH 7.4, with NaOH) containing 1 mM Probenecid. Next, the calcium dye Fluo-3 (25 μl/well of Fluo-3 AM at 4 μM, Molecular Probes F-1241, in Bath 1 buffer containing 1 mM Probenecid) is added to the 25 μl of Bath 1 remaining in each well after the plate wash and the dye is loaded at 37° C. in the tissue culture incubator for 60-90 min. The fluorescent dye is removed using the plate washer with Bath 1 containing 1 mM Probenecid, leaving 25 μl/well of this solution after the wash. Alternatively, cells can be loaded with the calcium indicator from Molecular Devices (Calcium 3 Assay Reagents, Cat # R7181) adding 5 μl of a 5× solution dye in Bath 1 containing 1 mM Probenecid (10 ml per dye flask cat# R7182 to generate a solution 20×) to 20 μl of the same buffer. After loading for 60 min, the experiment can be run without having to remove the dye.
(§4) Compounds are prepared at a 2× fold concentration in a 96-well plate (round bottom, Costar Corning cat# 3656), by reconstituting the pre-spotted compounds in bath 1 containing 1 mM probenecid. The final concentration DMSO is 0.5%, and the amount of DMSO is normalized across the assay plate. To determine an agonist action of the compounds on muscarinic receptors, the reconstituted compounds are added (25 μl compound/well) to the cell assay plate (containing 25 μl/well) using the multi-channel robotic system of the FLIPR 3 Instrument (Molecular Devices, Sunnyvale, Calif.). To determine a functional inhibitory action of the compounds on muscarinic receptors, the reconstituted compounds are added (25 μl compound/well) to the assay plate and pre-incubated for 15 min prior to adding 25 μl of Carbachol at 3× the EC80 for each muscarinic subtype. Alternatively, the compounds can be co-applied simultaneously with the agonist. In both assay modes, the fluorescence is recorded for 60 sec (excitation wavelength is […] and emission wavelength 540 nm) using the FLIPR 3 instrument.
(§5) The potency, efficacy and selectivity of the muscarinic compounds were evaluated by screening the compound activity across the whole family (M1 to M5 cells). Compounds were also screened for activity on other proteins such as other GPCRs and ion channels to determine selectivity on M4 receptors.
Background: Calcium flux is commonly read through the fluorescence of an indicator in the cells.

Another test has as its target T2, M1 muscarinic receptor (Homo sapiens, UniProt P11229).
T2 construct: expressed in transfected cells; host or cells: CHO (M1-CHO)
T2 sequence (P11229 1-460): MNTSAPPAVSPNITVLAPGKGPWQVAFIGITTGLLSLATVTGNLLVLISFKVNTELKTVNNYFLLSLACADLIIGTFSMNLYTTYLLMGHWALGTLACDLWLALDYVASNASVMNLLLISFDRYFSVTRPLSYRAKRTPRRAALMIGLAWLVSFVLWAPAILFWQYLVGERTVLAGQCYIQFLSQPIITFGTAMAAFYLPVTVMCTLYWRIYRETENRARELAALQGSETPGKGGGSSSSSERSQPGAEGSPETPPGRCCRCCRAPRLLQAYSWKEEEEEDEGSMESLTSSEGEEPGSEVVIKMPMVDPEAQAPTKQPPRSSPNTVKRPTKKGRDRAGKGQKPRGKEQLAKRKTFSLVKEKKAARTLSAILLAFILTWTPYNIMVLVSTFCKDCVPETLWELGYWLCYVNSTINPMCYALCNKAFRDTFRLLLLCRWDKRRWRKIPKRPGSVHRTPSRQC
The test is described as follows: Functional mobilization of intracellular calcium (FLIPR), M1-CHO cells. In kind it is cell-based. As to conditions: for Emax: 100% efficacy is the maximum response obtained using Carbachol as a control; for M1 Activity: M1-CHO cells, FLIPR calcium mobilization. As for the experimental part:
as §1, §2, §3, §4, §5

Turning to `COc1ccc(CN2CCC3(CC2)CN(C(C)=O)Cc2ccccc23)cn1` [compound 37], at M4 muscarinic receptor, the Emax is below 25% and the “M4 Activity” value is on record as “+ (activity was measured to be greater than 5.0 μM)”. For the same compound, at M1 muscarinic receptor, the Emax is 25 to 100% and the “M1 Activity” value is recorded as “+ (activity was measured to be greater than 5.0 μM)”.

`CC(=O)N1Cc2ccccc2C2(CCN(Cc3ccccn3)CC2)C1` [compound 40]: at M4 muscarinic receptor, the maximal response (Emax) was below 25% and the “M4 Activity” value is “+ (activity was measured to be greater than 5.0 μM)”. In addition, on M1 muscarinic receptor, the Emax was below 25% and the “M1 Activity” value is on record as “+ (activity was measured to be greater than 5.0 μM)”.

Turning to `Cc1ccc2c(c1)C1(CCN(CC3CCOCC3)CC1)OC2=O` [compound 41], on M4 muscarinic receptor, the Emax was below 25% and the “M4 Activity” value was “+ (activity was measured to be greater than 5.0 μM)”. Besides, on M1 muscarinic receptor, the Emax lay within 25 to 100% and the “M1 Activity” value is recorded as “+ (activity was measured to be greater than 5.0 μM)”.

Consider `O=C(c1ccccc1)N1CCC(N2CCC3(CC2)c2ccccc2C(=O)N3Cc2ccccc2)CC1` [compound 42], for which, on M4 muscarinic receptor, the Emax was below 25% and the “M4 Activity” value is “+ (activity was measured to be greater than 5.0 μM)”. Besides, at M1 muscarinic receptor, the Emax was below 25% and the “M1 Activity” value is recorded as “+ (activity was measured to be greater than 5.0 μM)”.

Consider `CC(=O)N1Cc2ccccc2C2(CCN(CC3CCN(C(=O)O[C@@H]4CCOC4)CC3)CC2)C1` [compound 45], for which, at M4 muscarinic receptor, the maximal effect (Emax) is below 25% and the “M4 Activity” value is on record as “+ (activity was measured to be greater than 5.0 μM)”. Besides, on M1 muscarinic receptor, the Emax was below 25% and the “M1 Activity” value is listed as “+ (activity was measured to be greater than 5.0 μM)”.

For `CCOC(=O)N1CCC(N2CCC3(CC2)CN(C(=O)c2ccno2)Cc2ccccc23)CC1` [compound 46], at M4 muscarinic receptor, the maximal response (Emax) is 25 to 100% and the “M4 Activity” value is given as “+++ (activity was measured to be less than 1.0 μM)”. At M1 muscarinic receptor, the Emax is 25 to 100% and the “M1 Activity” value is “+++ (activity was measured to be less than 1.0 μM)”.

In the case of `CN(C)C(=O)N1Cc2ccccc2C2(CCN(C3CC4CCC(C3)N4C(=O)O[C@@H]3CCOC3)CC2)C1` (stereo partly drawn) [compound 48, (R)-tetrahydrofuran-3-yl 3-(2-(dimethylcarbamoyl)-2,3-dihydro-1H -spiro[isoquinoline-4,4′-piperidine]-1′-yl)-8-azabicyclo[3.2.1]octane-8-carboxylate], at M4 muscarinic receptor, the Emax lay in the range of 25 to 100% and the “M4 Activity” value is “+++ (activity was measured to be less than 1.0 μM)”. Also, at M1 muscarinic receptor, the maximal effect (Emax) lay within 25 to 100% and the “M1 Activity” value is “+++ (activity was measured to be less than 1.0 μM)”.

In the case of `COC(=O)N1CC(CN2CCC3(CC2)CN(C(C)=O)Cc2ccccc23)C1` [compound 50], at M4 muscarinic receptor, the Emax is below 25% and the “M4 Activity” value is “+ (activity was measured to be greater than 5.0 μM)”. Moreover, at M1 muscarinic receptor, the maximum response (Emax) was below 25% and the “M1 Activity” value is reported as “+ (activity was measured to be greater than 5.0 μM)”.

With `CCOC(=O)N1CCC(CN2CCC3(CC2)CN(C(=O)Nc2ccccc2)Cc2ccccc23)CC1` [compound 51], on M4 muscarinic receptor, the Emax is 25 to 100% and the “M4 Activity” value is “+++ (activity was measured to be less than 1.0 μM)”. For the same compound, on M1 muscarinic receptor, the maximum response (Emax) lay in the range of 25 to 100% and the “M1 Activity” value was “+++ (activity was measured to be less than 1.0 μM)”.

With `O=C1c2ccccc2C2(CCN(CC3CCCCC3)CC2)N1Cc1ccccc1` [compound 52], at M4 muscarinic receptor, the Emax was below 25% and the “M4 Activity” value is given as “+ (activity was measured to be greater than 5.0 μM)”. Further, on M1 muscarinic receptor, the maximal response (Emax) lay in the range of 25 to 100% and the “M1 Activity” value is listed as “+ (activity was measured to be greater than 5.0 μM)”.

For `CCOC(=O)N1CCC(N2CCC3(CC2)CN(C(=O)NC(C)(C)C)Cc2ccccc23)CC1` [compound 53], on M4 muscarinic receptor, the Emax lay in the range of 25 to 100% and the “M4 Activity” value is reported as “+++ (activity was measured to be less than 1.0 μM)”. Also, on M1 muscarinic receptor, the Emax lay in the range of 25 to 100% and the “M1 Activity” value is recorded as “+++ (activity was measured to be less than 1.0 μM)”.

Consider `O=C1NC2(CCN(CC3CCCCC3)CC2)c2ccccc21` [compound 54], for which, on M4 muscarinic receptor, the Emax fell in the range of 25 to 100% and the “M4 Activity” value is “+ (activity was measured to be greater than 5.0 μM)”. Further, at M1 muscarinic receptor, the Emax is below 25% and the “M1 Activity” value is on record as “+ (activity was measured to be greater than 5.0 μM)”.

In the case of `CCCCOC(=O)N1Cc2ccccc2C2(CCN(C3CCN(C(=O)OCC)CC3)CC2)C1` [compound 56], on M4 muscarinic receptor, the maximum response (Emax) lay within 25 to 100% and the “M4 Activity” value is “+++ (activity was measured to be less than 1.0 μM)”. In addition, at M1 muscarinic receptor, the Emax lay in the range of 25 to 100% and the “M1 Activity” value is given as “+++ (activity was measured to be less than 1.0 μM)”.

With `CC(=O)N1Cc2ccccc2C2(CCN(CC3CCCCO3)CC2)C1` (centres unmarked) [compound 58], on M4 muscarinic receptor, the Emax was below 25% and the “M4 Activity” value was “+ (activity was measured to be greater than 5.0 μM)”. At M1 muscarinic receptor, the maximal effect (Emax) was below 25% and the “M1 Activity” value is on record as “+ (activity was measured to be greater than 5.0 μM)”.

Take `CCC(=O)Oc1ccc(CN2CCC3(CC2)CN(C(C)=O)Cc2ccccc23)cc1` [compound 59]: on M4 muscarinic receptor, the maximum response (Emax) is below 25% and the “M4 Activity” value is listed as “+ (activity was measured to be greater than 5.0 μM)”. Further, at M1 muscarinic receptor, the Emax is below 25% and the “M1 Activity” value is “+ (activity was measured to be greater than 5.0 μM)”.

As for `CCCCNC(=O)N1Cc2ccccc2C2(CCN(C3CC4CCC(C3)N4C(=O)OCC)CC2)C1` (centres unmarked) [compound 61], at M4 muscarinic receptor, the maximal response (Emax) is 25 to 100% and the “M4 Activity” value is given as “+++ (activity was measured to be less than 1.0 μM)”. Besides, at M1 muscarinic receptor, the maximal effect (Emax) lay within 25 to 100% and the “M1 Activity” value was “+++ (activity was measured to be less than 1.0 μM)”.

`CCOC(=O)N1CCC(CN2CCC3(CC2)CN(C(=O)CC)Cc2ccccc23)CC1` [compound 63]: on M4 muscarinic receptor, the Emax fell in the range of 25 to 100% and the “M4 Activity” value is listed as “+++ (activity was measured to be less than 1.0 μM)”. Further, at M1 muscarinic receptor, the maximum response (Emax) lay within 25 to 100% and the “M1 Activity” value is recorded as “+++ (activity was measured to be less than 1.0 μM)”.
